Article PMC4476580, “Novel Broad Spectrum Inhibitors Targeting the Flavivirus Methyltransferase” (PLoS ONE, 2015)
Where two headings read alike, the source gives them in different places.

Tests used:
WNV MTase [1] = molecular target: T1, WNV MTase (West Nile virus, UniProt Q9Q6P4); experiment: biochemical
T1 construct: containing the N-terminal 300, 266, 265, and 272 amino acids of NS5 protein, respectively; made in house
T1 sequence (Q9Q6P4 2529-2794 limits assumed): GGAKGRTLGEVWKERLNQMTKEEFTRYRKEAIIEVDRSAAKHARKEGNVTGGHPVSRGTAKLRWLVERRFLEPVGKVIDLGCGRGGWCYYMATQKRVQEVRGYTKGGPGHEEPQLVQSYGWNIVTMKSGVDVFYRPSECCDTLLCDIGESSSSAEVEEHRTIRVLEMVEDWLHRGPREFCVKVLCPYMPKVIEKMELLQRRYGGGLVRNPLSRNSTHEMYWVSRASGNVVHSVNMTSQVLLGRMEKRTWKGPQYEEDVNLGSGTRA

WNV = experiment: Viral titer reduction assay; settings: for Inhibition of the WNV titer: highest concentration tested (200 μM)
WNV MTase [2] = molecular target: T1, WNV MTase; experiment: biochemical; format: biochemical
BHK-21 cells = experiment: MTT cell proliferation cytotoxicity assay; format: cell-based; settings: for CC50 values times higher than IC50 values: BHK-21 CC50 versus in vitro IC50; for CC50: BHK-21 cells, MTT, 42 hours
Procedure: (§1) Cell-based assays were next performed to evaluate the biological activities of the selected compounds. The cytotoxicity of these compounds was first evaluated by using a MTT cell proliferation assay with a BHK-21 cell line (Table 1, fig 5), as we described previously. […] Therefore, these compounds were further investigated for their in vitro antiviral efficacy.
(§2) Cytotoxicity was measured using BHK-21 cells by a MTT cell proliferation assay using the 3-(4,5-dimethylthiazol-2-yl)-2,5-diphenyl tetrazolium bromide method (ATCC), as described previously.

[3] = MTT cell proliferation cytotoxicity assay; format: cell-based; settings: hamster; BHK-21 cells, MTT, 42 hours
Procedure: as §1, §2

YFV MTase [4] = molecular target: T2, YFV MTase (Yellow fever virus, UniProt P03314); format: biochemical; settings: read-out: IC50 N7
T2 sequence (P03314 2507-2771 limits assumed): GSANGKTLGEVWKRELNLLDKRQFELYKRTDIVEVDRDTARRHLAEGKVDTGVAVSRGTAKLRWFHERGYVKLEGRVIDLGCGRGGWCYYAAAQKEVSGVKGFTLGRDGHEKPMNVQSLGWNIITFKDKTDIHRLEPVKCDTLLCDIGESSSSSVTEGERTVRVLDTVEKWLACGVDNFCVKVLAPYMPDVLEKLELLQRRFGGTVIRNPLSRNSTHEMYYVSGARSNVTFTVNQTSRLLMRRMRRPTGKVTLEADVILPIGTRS

DENV3 MTase [5] = molecular target: T3, DENV3 MTase (Dengue virus type 3, UniProt Q6YMS4); format: biochemical; settings: read-out: IC50 2’-O
T3 construct: containing the N-terminal 300, 266, 265, and 272 amino acids of NS5 protein, respectively; made in house
T3 sequence (Q6YMS4 2492-2753): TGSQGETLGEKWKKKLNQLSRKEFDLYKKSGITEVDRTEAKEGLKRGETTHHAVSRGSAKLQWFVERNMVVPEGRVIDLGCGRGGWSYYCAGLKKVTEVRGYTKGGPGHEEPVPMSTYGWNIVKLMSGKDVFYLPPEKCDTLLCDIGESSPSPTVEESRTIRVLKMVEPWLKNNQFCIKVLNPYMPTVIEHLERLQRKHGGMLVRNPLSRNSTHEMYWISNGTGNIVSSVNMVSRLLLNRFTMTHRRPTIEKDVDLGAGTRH

DENV3 MTase [6] = molecular target: T3, DENV3 MTase; format: biochemical; settings: read-out: IC50 N7
YFV MTase [7] = molecular target: T2, YFV MTase; format: biochemical; settings: read-out: IC50 2’-O
DENV2 MTase [8] = molecular target: T4, DENV2 MTase (Dengue virus type 2, UniProt P14340); format: biochemical; settings: read-out: IC50 N7
T4 construct: containing the N-terminal 300, 266, 265, and 272 amino acids of NS5 protein, respectively; made in house
T4 sequence (P14340 2493-2755 limits assumed): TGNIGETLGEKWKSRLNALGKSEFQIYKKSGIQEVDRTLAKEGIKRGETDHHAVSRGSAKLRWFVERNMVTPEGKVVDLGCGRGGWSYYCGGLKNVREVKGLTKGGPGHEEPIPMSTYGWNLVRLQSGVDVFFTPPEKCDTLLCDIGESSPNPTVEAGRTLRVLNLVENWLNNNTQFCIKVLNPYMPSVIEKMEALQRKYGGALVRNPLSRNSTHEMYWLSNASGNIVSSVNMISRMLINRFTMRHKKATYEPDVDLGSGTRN

DENV2 MTase [9] = molecular target: T4, DENV2 MTase; format: biochemical; settings: read-out: IC50 2’-O

SMILES	IC50 (WNV MTase [1]) [µM]	IC50 (WNV MTase [2]; IC50 N7 No CHAPS) [µM]	IC50 (WNV MTase [2]; IC50 N7 with CHAPS) [µM]	CC50 values times higher than IC50 values (BHK-21 cells)	CC50 at 42 h [3] [µM]	IC50 (WNV MTase [1]; read-out: IC50 2’-O with CHAPS) [µM]	IC50 (WNV MTase [2]; read-out: IC50 N7 No CHAPS) [µM]	also measured
O=C1CN2CCN(CC2)CC(=O)Nc2ccc(cc2)S(=O)(=O)c2ccc(cc2)NC(=O)CN2CCN(CC2)CC(=O)Nc2ccc(cc2)S(=O)(=O)c2ccc(cc2)N1 [NSC 36806]	> 300	39	35.5	~10	362			EC50 (WNV; West Nile virus, 42 h): > 200 µM; Inhibition of the WNV titer (WNV): did not inhibit the WNV titer
O=C1c2cc([N+](=O)[O-])ccc2-c2ccc3c4ccc5c6c(ccc(c7ccc1c2c73)c64)C(=O)c1cc([N+](=O)[O-])ccc1-5 [NSC 51535]					5.7	5.6	3.9	
O=C1c2ccccc2C(=O)c2c1ccc(N1C(=O)c3ccccc3C1=O)c2-c1c(N2C(=O)c3ccccc3C2=O)ccc2c1C(=O)c1ccccc1C2=O [NSC 115448]	16.6	15.7	225		155			
O=c1c2ccccc2c2ccccc2c(=O)n1-c1cc2c3ccccc3ccc2c2ccccc12 [NSC 128609]	101	40			192			
COc1ccc2cc1Oc1ccc(cc1)CC1c3c(cc(OC)c4c3Oc3cc5c(cc3O4)CCNC5C2)CCN1C (stereo not drawn) [NSC 181486]	> 300	25.9	34.7		4.8			
Cc1ccc(NC(=O)c2cc3ccccc3cc2O)c(C)c1.Cc1ccc(NC(=O)c2cc3ccccc3cc2O)c(C)c1.[Ni] [NSC 306698]						49.1	45	CC50 (BHK-21 cells): 32 µM
Cc1nn(-c2ccc(S(=O)(=O)[O-])cc2)c([O-])c1N=Nc1ccc(-c2ccc(N=Nc3ccc4c(S(=O)(=O)[O-])cc(S(=O)(=O)[O-])c(N)c4c3[O-])c([O-])c2)cc1[O-].[Cu+2].[Cu+2].[H+].[H+].[H+] [NSC 306711]				~10		4.3	0.87	IC50 (YFV MTase [4]): 1.2 µM; IC50 (DENV3 MTase [5]): 4.7 µM; IC50 (DENV3 MTase [6]): 36 µM; EC50 (WNV; BHK cells infected with WNV, MOI 0.1, 42 hours post-infection, plaque assay on Vero cells): 1 µM; IC50 (WNV MTase [2]; read-out: IC50 N7 with CHAPS): 2.3 µM; IC50 (YFV MTase [7]): 1.1 µM; IC50 (DENV2 MTase [8]): 5.3 µM; IC50 (DENV2 MTase [9]): 6.9 µM; CC50 (BHK-21 cells): 332 µM
CN1CCN(c2ccc3[nH]c(-c4ccc5[nH]c(-c6ccc(O)cc6)nc5c4)nc3c2)CC1 [NSC 322921]	> 300	29.9	26.5	~10	> 500			EC50 (WNV; West Nile virus, 42 h): > 200 µM; Inhibition of the WNV titer (WNV): did not inhibit the WNV titer
Ic1ccc2c(c1)N(c1ccccc1)c1cc(Nc3ccc4c(c3)N(c3ccccc3)c3cc(I)ccc3N4)ccc1N2 [NSC 402959]					14.6	6.2	9.8	IC50 (WNV MTase [2]; read-out: IC50 N7 with CHAPS): 30.8 µM
CC1=C(Nc2c(C)cc(O)cc2O)C(=O)C=c2oc3c(c21)C(C)=C(Nc1c(C)cc(O)cc1O)C(=O)C=3 [NSC 610930]	5.6	4.2	18.2	~10	117			EC50 (WNV; West Nile virus, 42 h): 12.6 µM
Nc1ncnc2c1ncn2[C@@H]1O[C@H](C[C@@H](N)CC[C@H](N)C(=O)O)[C@@H](O)[C@H]1O [SIN, sinefungin, reference compound]								Inhibition of the N7 activity of the WNV MTase (WNV MTase [2]): ~ 80%
